Test results published in ChEMBL document CHEMBL1697731, “Cheminformatics analysis of assertions mined from literature that describe drug-induced liver injury in different species” (Chem Res Toxicol, 2010).
*1 amine or outer side, *2 acyl side, *3 side chain or, on linkers, in order; H or OH if unused. Where a SMILES comes first, the peptide text is derived from it. Bridges are numbered along the chain shown (N, C = ends). [ ]: non-standard residue; d: D form. The star is where a group is joined. hTyr(3S-OH,4S-OH,3'-OSO3H) = N[C@H](C(=O)O)[C@H](O)[C@@H](O)c1ccc(O)c(OS(=O)(=O)O)c1; Orn(4R-OH,5R-OH) = O=C([C@H](C[C@@H](O)[C@@H](O)N[*:3])N[*:1])[*:2]; Pro(3S-OH,4S-Me) = C[C@H]1CN[C@H](C(=O)O)[C@H]1O; X1 = CCCCCOc1ccc(-c2cc(-c3ccc(C(=O)*)cc3)no2)cc1; Gln(3R-OH) = NC(=O)C[C@@H](O)[C@H](N)C(=O)O; Hyp = O=C(O)[C@@H]1C[C@@H](O)CN1

Tests used:
Hepatotoxicity [1] = assay: Literature-mined compound from Fourches et al multi-species drug-induced liver injury (DILI) dataset, effect in rodents; conditions: rodentia
Hepatotoxicity [2] = assay: Literature-mined compound from Fourches et al multi-species drug-induced liver injury (DILI) dataset, effect in humans; conditions: human
Hepatotoxicity [3] = assay: Literature-mined compound from Fourches et al multi-species drug-induced liver injury (DILI) dataset, effect in non-rodents

## O=C1CN=C(c2ccccc2)c2cc([N+](=O)[O-])ccc2N1 [NITRAZEPAM]
Hepatotoxicity [1]
  Hepatotoxicity: drug-induced liver injury reported
Hepatotoxicity [2]
  Hepatotoxicity: no drug-induced liver injury reported
Hepatotoxicity [3]
  Hepatotoxicity: no drug-induced liver injury reported

## O=C([O-])P(=O)([O-])[O-].[Na+].[Na+].[Na+] [FOSCARNET SODIUM]
Hepatotoxicity [1]
  Hepatotoxicity: drug-induced liver injury reported
Hepatotoxicity [2]
  Hepatotoxicity: no drug-induced liver injury reported
Hepatotoxicity [3]
  Hepatotoxicity: no drug-induced liver injury reported

## CN1CCN(CCCN2c3ccccc3Sc3ccc(Cl)cc32)CC1 [PROCHLORPERAZINE]
Hepatotoxicity [1]
  Hepatotoxicity: no drug-induced liver injury reported
Hepatotoxicity [2]
  Hepatotoxicity: drug-induced liver injury reported
Hepatotoxicity [3]
  Hepatotoxicity: no drug-induced liver injury reported

## CC=CC1=C(C(=O)O)N2C(=O)[C@@H](NC(=O)[C@H](N)c3ccc(O)cc3)[C@H]2SC1 [CEFPROZIL]
Hepatotoxicity [1]
  Hepatotoxicity: no drug-induced liver injury reported
Hepatotoxicity [2]
  Hepatotoxicity: drug-induced liver injury reported
Hepatotoxicity [3]
  Hepatotoxicity: no drug-induced liver injury reported

## COc1ccc2c(c1)c(CC(=O)O)c(C)n2C(=O)c1ccc(Cl)cc1 [INDOMETHACIN]
Hepatotoxicity [1]
  Hepatotoxicity: drug-induced liver injury reported
Hepatotoxicity [2]
  Hepatotoxicity: drug-induced liver injury reported
Hepatotoxicity [3]
  Hepatotoxicity: drug-induced liver injury reported

## C=CCN1CC[C@]23c4c5ccc(O)c4O[C@H]2[C@@H](O)C=C[C@H]3[C@H]1C5 [NALORPHINE]
Hepatotoxicity [1]
  Hepatotoxicity: drug-induced liver injury reported
Hepatotoxicity [2]
  Hepatotoxicity: no drug-induced liver injury reported
Hepatotoxicity [3]
  Hepatotoxicity: no drug-induced liver injury reported

## CCCCCOc1ccc(-c2cc(-c3ccc(C(=O)N[C@H]4C[C@@H](O)[C@@H](O)NC(=O)[C@@H]5[C@@H](O)[C@@H](C)CN5C(=O)[C@H]([C@H](O)CC(N)=O)NC(=O)[C@H]([C@H](O)[C@@H](O)c5ccc(O)c(OS(=O)(=O)O)c5)NC(=O)[C@@H]5C[C@@H](O)CN5C(=O)[C@H]([C@@H](C)O)NC4=O)cc3)no2)cc1 [MICAFUNGIN] (X1-[Orn(4R-OH,5R-OH)]T[Hyp][hTyr(3S-OH,4S-OH,3'-OSO3H)][Gln(3R-OH)][Pro(3S-OH,4S-Me)]; lactam 1-C)
Hepatotoxicity [1]
  Hepatotoxicity: no drug-induced liver injury reported
Hepatotoxicity [2]
  Hepatotoxicity: drug-induced liver injury reported
Hepatotoxicity [3]
  Hepatotoxicity: no drug-induced liver injury reported

## CC(C)NCC(O)c1ccc(O)c(O)c1 (centres undefined) [ISOPROTERENOL]
Hepatotoxicity [1]; Liver
  Hepatotoxicity: drug-induced liver injury reported
Hepatotoxicity [2]; Liver
  Hepatotoxicity: drug-induced liver injury reported
Hepatotoxicity [3]; Liver
  Hepatotoxicity: drug-induced liver injury reported

## CC(C(=O)O)c1ccc(N2CC=CC2)c(Cl)c1 (centres undefined) [PIRPROFEN]
Hepatotoxicity [1]
  Hepatotoxicity: drug-induced liver injury reported
Hepatotoxicity [2]
  Hepatotoxicity: drug-induced liver injury reported
Hepatotoxicity [3]
  Hepatotoxicity: no drug-induced liver injury reported

## NC(=O)CC[C@H](N)C(=O)O [GLUTAMINE]
Hepatotoxicity [1]
  Hepatotoxicity: drug-induced liver injury reported
Hepatotoxicity [2]
  Hepatotoxicity: drug-induced liver injury reported
Hepatotoxicity [3]
  Hepatotoxicity: drug-induced liver injury reported

## CN1C[C@H](C(=O)N[C@]2(C)O[C@@]3(O)[C@@H]4CCCN4C(=O)[C@H](Cc4ccccc4)N3C2=O)C=C2c3cccc4[nH]cc(c34)C[C@H]21 [ERGOTAMINE]
Hepatotoxicity [1]
  Hepatotoxicity: no drug-induced liver injury reported
Hepatotoxicity [2]
  Hepatotoxicity: drug-induced liver injury reported
Hepatotoxicity [3]
  Hepatotoxicity: drug-induced liver injury reported

## CC/C(=C(/CC)c1ccc(O)cc1)c1ccc(O)cc1 [DIETHYLSTILBESTROL]
Hepatotoxicity [1]
  Hepatotoxicity: drug-induced liver injury reported
Hepatotoxicity [2]
  Hepatotoxicity: drug-induced liver injury reported
Hepatotoxicity [3]
  Hepatotoxicity: drug-induced liver injury reported

## CCOC(=O)c1ncn2c1CN(C)C(=O)c1cc(F)ccc1-2 [FLUMAZENIL]
Hepatotoxicity [1]
  Hepatotoxicity: no drug-induced liver injury reported
Hepatotoxicity [2]
  Hepatotoxicity: drug-induced liver injury reported
Hepatotoxicity [3]
  Hepatotoxicity: no drug-induced liver injury reported
